Some results are limits rather than exact numbers.

In one assay the target is T1, wt RET (Homo sapiens, UniProt P07949).
T1 construct: purchased Invitrogen (SelectScreen service)
The assay can be described thus: Invitrogen SelectScreen in vitro kinase assay, wt RET. In kind it is biochemical. Particulars: read-out: in vitro IC50 dose: RET. An excerpt: Fig 2 ALW-II-41-27, HG-6-63-01 and XMD15-44 chemical structure. A) Chemical structure of the studied compounds: red colour indicates the “tail”, black colour indicates “linker”, and pink colour indicates the “head” part in the binding. B) Modelling of ALW-II-41-27 (left), XMD15-44 (middle) and HG-6-63-01(right) binding to the DFG-out conformation of RET.
Though more rarely than C634 and M918 mutations, other mutations targeting RET residues in the tyrosine kinase domain can cause familial or sporadic MTC [1, 2]. […] Of note, RET A883 residue is located in the VI Hanks domain adjacent to RET activation loop and it corresponds to G372 residue in ABL kinase whose mutation has been isolated in imatinib-resistant patients.

The next assay has as its system RAT1 cells. The assay can be described thus: Growth curves, parental RAT1 cells. In kind it is cell-based, rat. Particulars: low serum. Here is the method:
(§1) To compare cell growth, we performed unpaired Student’s t test using the Instat software program (Graphpad Software Inc). P values were two-sided, and differences were considered statistically significant at P <.02. IC50 doses were calculated through a curve fitting analysis from last day values using the PRISM software program (Graphpad Software Inc).

In the next assay the test system is TT cells. Briefly: Growth curves, TT medullary thyroid carcinoma cells (RET/C634W). In kind it is cell-based. Conditions: Homo sapiens, 20% serum, 95% CI in brackets, read-out: Growth inhibition IC50 dose TT. Here is the method: (§2) TT human cell line was obtained in 2002 from ATCC and authenticated by RET genotyping; it was derived from a MTC and harbors a cysteine 634 to tryptophan (C634W) RET mutation. TT cells were grown in RPMI 1640 supplemented with 20% fetal calf serum (GIBCO). MZ-CRC-1 human cells were kindly provided in 2009 by Robert F. Gagel (MD Anderson, Houston, TX) and authenticated by RET genotyping. […] Nthy-ori 3–1, a human thyroid follicular epithelial cell line immortalized by the SV40 large T gene, was obtained from European Collection of Cell Cultures (ECACC) (Wiltshire, UK) in 2010.
as §1

The subject of a further assay is MZ-CRC-1 cells. The assay can be described thus: Growth curves, MZ-CRC-1 medullary thyroid carcinoma cells (RET/M918T). In kind it is cell-based. Particulars: Homo sapiens, 10% serum, 95% CI in brackets, read-out: Growth inhibition IC50 dose MZ-CRC-1. The method, then:
as §2, §1

In assay [1] the test system is SHC and MAPK phosphorylation in parental RAT1 cells. The assay can be described thus: Western blot of SHC and MAPK phosphorylation in parental RAT1 cells. In kind it is cell-based, rat. Particulars: 2 hr. Here is the method: (§3) Protein lysates were prepared according to standard procedures. Briefly, cells were lysed in a buffer containing 50 mM N-2-hydroxyethylpiperazine-N'-2-ethanesulfonic acid (HEPES; pH 7.5), 1% (vol/vol) Triton X-100, 150 mM NaCl, 5 mM EGTA, 50 mM NaF, 20 mM sodium pyrophosphate, 1 mM sodium vanadate, 2 mM phenylmethylsulphonyl fluoride (PMSF) and 1 μg/ml aprotinin. Lysates were clarified by centrifugation at 10,000 Xg for 15 min. […] Immune complexes were detected with the enhanced chemiluminescence kit (Amersham Pharmacia Biotech, Little Chalfort, UK). Signal intensity was analyzed at the Phosphorimager (Typhoon 8600, Amersham Pharmacia Biotech) interfaced with the ImageQuant software. Anti-phospho-SHC (#07206), that recognizes SHC proteins when phosphorylated on Y317 was from Merck Millipore (Darmstadt, Germany). Anti-MAPK (#4695) and anti-phospho-MAPK (#4370), specific for p44/42MAPK (ERK1/2) phosphorylated on Thr202/Tyr204, anti-VEGFRII (#2479) and anti-phospho-VEGFRII (#2478), that recognizes VEGF Receptor 2 when phosphorylated on Y1175, were from Cell Signaling (Beverly, MA).
(§4) Anti-SHC (#H-108) was from Santa Cruz Biotechnology (Santa Cruz, CA). Anti-RET is a polyclonal antibody raised against the tyrosine kinase protein fragment of human RET [28]. Anti-phospho905 is a phospho-specific polyclonal antibody recognizing RET proteins phosphorylated at Y905 and anti-phospho1062 is a phospho-specific polyclonal antibody recognizing RET proteins phosphorylated at Y1062 [13]. Secondary antibodies coupled to horseradish peroxidase were from Santa Cruz Biotechnology.
EC: extracellular domain; IC: intracellular domain; TM: transmembrane domain.
For orientation: Immunoblotting shows a protein as a band on a membrane.

In assay [2] the test system is SHC and MAPK phosphorylation in Nthy-ori-3-1 cells. Briefly: Western blot of SHC and MAPK phosphorylation in Nthy-ori-3-1 cells. In kind it is cell-based, human. Conditions: 10, 100 and 1,000 nM, 2 hr. Here is the method: as §3, §4
We selected TT and MZ-CRC-1 cells, that derive from human MTC harbouring the RET/C634W or RET/M918T mutation, respectively, and TPC1 cells, that derive from human PTC bearing the RET/PTC1 (CCDC6-RET) rearrangement. […] Concentrations as low at 10 nM of all three drugs inhibited RET autophosphorylation as well as SHC and MAPK activation by 20–40% of control (Fig 4A–4C). […]

The target of assay [3] is T2, KinomeScan kinase panel (Homo sapiens, UniProt O95747).
T2 construct: purchased DiscoveRx (KinomeScan)
Briefly: KinomeScan kinase panel, single concentration 10 µM. In kind it is binding. Particulars: OSR1, 10 µM; read-out: score (%).

Assay [4] has as its target T3, KinomeScan kinase panel (Homo sapiens, UniProt P32298).
T3 construct: purchased DiscoveRx (KinomeScan)
Described as above. In kind it is binding. Conditions: GRK4, 10 µM; read-out: score (%).

For assay [5], the target named is T4, KinomeScan kinase panel (Homo sapiens, UniProt P42336, E545A).
T4 construct: purchased DiscoveRx (KinomeScan)
The assay is described as above. In kind it is binding. Conditions: PIK3CA(E545A), 10 µM; read-out: score (%).

Assay [6] deals with T5, KinomeScan kinase panel (Homo sapiens, UniProt P42336, H1047L).
T5 construct: purchased DiscoveRx (KinomeScan)
The assay is described as above. In kind it is binding. Particulars: PIK3CA(H1047L), 10 µM; read-out: score (%).

Assay [7] concerns the target T6, KinomeScan kinase panel (Homo sapiens, UniProt P51617).
T6 construct: purchased DiscoveRx (KinomeScan)
The description is as above. Conditions: IRAK1, 10 µM; read-out: score (%). In kind it is binding.

The target of assay [8] is T7, KinomeScan kinase panel (Homo sapiens, UniProt Q13233).
T7 construct: purchased DiscoveRx (KinomeScan)
The description is as above. In kind it is binding. Conditions: MAP3K1, 10 µM; read-out: score (%).

For assay [9], the target named is T8, KinomeScan kinase panel (Homo sapiens, UniProt Q9UEW8).
T8 construct: purchased DiscoveRx (KinomeScan)
Described as above. In kind it is binding. Particulars: kinase STK39; 10 µM; read-out: score (%).

The target of assay [10] is T9, KinomeScan kinase panel (Homo sapiens, UniProt Q9UHD2).
T9 construct: purchased DiscoveRx (KinomeScan)
The description is as above. In kind it is binding. Particulars: kinase TBK1; 10 µM; read-out: score (%).

In assay [11] the target is T10, KinomeScan kinase panel (Homo sapiens, UniProt Q9Y6M4).
T10 construct: purchased DiscoveRx (KinomeScan)
The assay is described as above. In kind it is binding. Conditions: CSNK1G3, 10 µM.

T1 sequence (P07949 29-1114): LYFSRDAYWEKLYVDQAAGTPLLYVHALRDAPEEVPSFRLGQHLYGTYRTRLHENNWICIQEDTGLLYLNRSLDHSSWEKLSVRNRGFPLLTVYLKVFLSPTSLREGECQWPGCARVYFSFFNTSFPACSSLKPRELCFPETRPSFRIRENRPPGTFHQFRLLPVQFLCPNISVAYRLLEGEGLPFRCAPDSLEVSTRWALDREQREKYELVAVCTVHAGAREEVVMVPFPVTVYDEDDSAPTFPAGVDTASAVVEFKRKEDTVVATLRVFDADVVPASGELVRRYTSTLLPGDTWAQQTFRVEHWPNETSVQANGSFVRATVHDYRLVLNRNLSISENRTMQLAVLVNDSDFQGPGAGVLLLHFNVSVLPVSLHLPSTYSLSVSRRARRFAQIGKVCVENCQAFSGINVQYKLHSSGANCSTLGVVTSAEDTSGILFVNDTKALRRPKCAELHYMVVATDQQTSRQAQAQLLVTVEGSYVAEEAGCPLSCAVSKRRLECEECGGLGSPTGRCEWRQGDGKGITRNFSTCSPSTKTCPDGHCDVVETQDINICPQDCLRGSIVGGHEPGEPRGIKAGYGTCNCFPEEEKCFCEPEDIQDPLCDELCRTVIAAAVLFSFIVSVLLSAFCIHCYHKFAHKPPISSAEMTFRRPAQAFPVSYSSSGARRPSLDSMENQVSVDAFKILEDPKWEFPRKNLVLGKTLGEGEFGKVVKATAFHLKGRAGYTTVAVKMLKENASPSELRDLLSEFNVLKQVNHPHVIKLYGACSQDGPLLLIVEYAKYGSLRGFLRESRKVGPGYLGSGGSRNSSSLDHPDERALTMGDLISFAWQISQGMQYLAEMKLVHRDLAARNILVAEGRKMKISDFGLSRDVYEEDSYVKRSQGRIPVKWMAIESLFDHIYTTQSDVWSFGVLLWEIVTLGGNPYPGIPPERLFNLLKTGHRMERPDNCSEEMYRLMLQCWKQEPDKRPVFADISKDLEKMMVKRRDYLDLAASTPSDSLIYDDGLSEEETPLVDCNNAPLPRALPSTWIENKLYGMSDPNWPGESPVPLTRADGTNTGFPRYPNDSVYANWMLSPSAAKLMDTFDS
T7 sequence (Q13233 whole entry): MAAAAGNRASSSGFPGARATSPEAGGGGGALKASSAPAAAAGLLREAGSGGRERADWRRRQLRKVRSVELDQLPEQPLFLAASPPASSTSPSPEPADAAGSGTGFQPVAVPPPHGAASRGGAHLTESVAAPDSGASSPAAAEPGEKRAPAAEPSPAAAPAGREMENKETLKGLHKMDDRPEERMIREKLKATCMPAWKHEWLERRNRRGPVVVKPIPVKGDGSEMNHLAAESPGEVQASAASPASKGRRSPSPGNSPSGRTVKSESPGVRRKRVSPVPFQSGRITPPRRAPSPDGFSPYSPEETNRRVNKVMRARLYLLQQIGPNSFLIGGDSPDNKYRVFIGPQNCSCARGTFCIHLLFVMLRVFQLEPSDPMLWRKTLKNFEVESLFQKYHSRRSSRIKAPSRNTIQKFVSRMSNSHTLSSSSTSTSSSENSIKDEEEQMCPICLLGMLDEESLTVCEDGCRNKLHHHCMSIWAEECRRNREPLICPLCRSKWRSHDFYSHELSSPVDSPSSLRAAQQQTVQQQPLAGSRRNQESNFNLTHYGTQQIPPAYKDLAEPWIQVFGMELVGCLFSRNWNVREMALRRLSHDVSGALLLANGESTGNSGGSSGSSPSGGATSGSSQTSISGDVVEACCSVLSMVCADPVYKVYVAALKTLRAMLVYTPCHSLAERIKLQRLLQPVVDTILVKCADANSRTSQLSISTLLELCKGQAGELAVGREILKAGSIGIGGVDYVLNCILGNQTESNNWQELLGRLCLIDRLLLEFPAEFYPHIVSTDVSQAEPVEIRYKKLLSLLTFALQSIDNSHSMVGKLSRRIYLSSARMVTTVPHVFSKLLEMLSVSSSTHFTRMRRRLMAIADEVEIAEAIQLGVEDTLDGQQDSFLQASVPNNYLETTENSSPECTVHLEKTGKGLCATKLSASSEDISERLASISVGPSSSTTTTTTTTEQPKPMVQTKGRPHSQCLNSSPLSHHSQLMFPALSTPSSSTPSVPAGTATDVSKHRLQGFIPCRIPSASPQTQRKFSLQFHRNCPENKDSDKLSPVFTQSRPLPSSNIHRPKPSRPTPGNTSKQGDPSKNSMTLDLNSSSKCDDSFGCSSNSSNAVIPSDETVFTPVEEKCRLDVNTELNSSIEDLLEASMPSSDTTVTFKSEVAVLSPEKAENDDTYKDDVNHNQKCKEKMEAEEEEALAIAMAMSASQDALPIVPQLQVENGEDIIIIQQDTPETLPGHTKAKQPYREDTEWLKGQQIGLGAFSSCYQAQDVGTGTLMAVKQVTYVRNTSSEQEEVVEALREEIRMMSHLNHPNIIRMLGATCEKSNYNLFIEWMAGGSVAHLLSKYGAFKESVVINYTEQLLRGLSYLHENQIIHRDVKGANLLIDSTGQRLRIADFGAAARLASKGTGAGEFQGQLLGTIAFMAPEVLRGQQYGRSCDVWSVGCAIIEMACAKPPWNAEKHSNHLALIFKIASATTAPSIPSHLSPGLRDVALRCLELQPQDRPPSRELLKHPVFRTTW
T10 sequence (Q9Y6M4 whole entry): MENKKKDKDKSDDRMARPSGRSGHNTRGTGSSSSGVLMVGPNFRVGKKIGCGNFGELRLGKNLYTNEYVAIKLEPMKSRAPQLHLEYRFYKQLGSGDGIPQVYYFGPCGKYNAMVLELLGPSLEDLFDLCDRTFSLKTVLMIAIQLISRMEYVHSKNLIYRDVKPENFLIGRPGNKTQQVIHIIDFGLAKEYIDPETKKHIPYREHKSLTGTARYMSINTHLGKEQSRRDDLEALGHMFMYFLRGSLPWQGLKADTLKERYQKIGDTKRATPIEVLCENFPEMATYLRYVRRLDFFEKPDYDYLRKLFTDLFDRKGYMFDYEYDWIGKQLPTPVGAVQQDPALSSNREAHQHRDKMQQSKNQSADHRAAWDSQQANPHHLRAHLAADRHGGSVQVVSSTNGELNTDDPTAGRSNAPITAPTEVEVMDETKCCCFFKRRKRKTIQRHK
T9 sequence (Q9UHD2 whole entry): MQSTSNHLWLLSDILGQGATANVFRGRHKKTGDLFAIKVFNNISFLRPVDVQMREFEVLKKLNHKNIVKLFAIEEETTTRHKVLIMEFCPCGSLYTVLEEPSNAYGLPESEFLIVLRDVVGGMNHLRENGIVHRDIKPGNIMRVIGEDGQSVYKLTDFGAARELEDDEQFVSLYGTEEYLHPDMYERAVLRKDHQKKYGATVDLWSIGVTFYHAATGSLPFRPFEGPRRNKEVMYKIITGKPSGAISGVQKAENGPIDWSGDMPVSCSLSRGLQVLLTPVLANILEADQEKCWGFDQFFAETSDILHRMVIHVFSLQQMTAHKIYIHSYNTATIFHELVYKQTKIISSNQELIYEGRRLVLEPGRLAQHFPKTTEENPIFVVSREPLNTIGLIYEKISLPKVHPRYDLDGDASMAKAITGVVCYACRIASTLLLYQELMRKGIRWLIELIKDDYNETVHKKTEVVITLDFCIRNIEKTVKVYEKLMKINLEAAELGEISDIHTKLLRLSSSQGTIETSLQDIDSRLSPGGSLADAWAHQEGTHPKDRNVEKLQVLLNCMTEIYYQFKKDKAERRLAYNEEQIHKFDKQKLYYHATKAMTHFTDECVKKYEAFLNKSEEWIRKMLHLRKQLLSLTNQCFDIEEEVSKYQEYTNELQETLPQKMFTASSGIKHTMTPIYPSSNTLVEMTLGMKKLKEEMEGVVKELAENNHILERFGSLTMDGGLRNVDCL
T3 sequence (P32298 whole entry): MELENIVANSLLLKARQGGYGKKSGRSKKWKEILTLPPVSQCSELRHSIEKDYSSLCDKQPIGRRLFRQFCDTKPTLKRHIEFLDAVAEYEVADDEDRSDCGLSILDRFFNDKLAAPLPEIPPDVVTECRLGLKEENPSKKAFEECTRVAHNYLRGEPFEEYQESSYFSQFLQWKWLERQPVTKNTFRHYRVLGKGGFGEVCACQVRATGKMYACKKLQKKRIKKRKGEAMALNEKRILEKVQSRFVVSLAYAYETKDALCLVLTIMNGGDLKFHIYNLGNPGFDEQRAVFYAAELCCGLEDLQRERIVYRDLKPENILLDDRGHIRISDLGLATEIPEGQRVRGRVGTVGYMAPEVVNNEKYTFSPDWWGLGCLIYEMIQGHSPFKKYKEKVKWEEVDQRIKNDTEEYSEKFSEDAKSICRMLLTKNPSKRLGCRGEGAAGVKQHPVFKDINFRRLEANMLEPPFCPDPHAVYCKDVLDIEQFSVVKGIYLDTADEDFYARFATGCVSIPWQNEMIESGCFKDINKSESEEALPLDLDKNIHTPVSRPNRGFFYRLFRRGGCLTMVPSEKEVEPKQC
T2 sequence (O95747 whole entry): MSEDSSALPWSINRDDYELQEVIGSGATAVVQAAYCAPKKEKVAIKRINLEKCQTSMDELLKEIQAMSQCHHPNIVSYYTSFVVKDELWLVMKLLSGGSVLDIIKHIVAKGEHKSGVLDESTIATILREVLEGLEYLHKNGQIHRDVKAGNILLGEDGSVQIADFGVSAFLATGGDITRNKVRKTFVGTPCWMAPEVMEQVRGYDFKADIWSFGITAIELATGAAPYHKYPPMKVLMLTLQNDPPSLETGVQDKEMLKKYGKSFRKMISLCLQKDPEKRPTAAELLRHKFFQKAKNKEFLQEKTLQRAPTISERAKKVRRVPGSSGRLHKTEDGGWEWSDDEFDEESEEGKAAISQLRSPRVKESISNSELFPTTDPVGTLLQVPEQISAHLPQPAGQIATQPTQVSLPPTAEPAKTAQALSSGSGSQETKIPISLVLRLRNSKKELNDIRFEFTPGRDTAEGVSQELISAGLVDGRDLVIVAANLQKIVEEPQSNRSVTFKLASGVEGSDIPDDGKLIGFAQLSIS

Consider `CCN1CCN(Cc2ccc(NC(=O)c3ccc(C)c(NC(=O)c4cncc(-c5cccs5)c4)c3)cc2C(F)(F)F)CC1` [ALW-II-41-27], for which the values for the IC50 on wt RET, with TT cells and with MZ-CRC-1 cells were 24.7 nM, 5.7 nM and 2 nM, respectively. Also, the “Growth inhibition IC50 dose: RAT1” value in the assay with RAT1 cells is on record as “Not measurable”. Also, the “effect on SHC and MAPK phosphorylation in parental RAT1 cells” value (“effect … in parental RAT1 cells” for short) in [1] is recorded as “did not affect”. Further, the “effect on SHC and MAPK phosphorylation in Nthy-ori-3-1 cells” value (“effect … in Nthy-ori-3-1 cells” below) in [2] was “did not exert any detectable effects”. Further, the remaining binding at 10 µM on KinomeScan kinase panel [3] is more than 30%; at KinomeScan kinase panel [4] it was more than 30%; on KinomeScan kinase panel [5], more than 30%; at KinomeScan kinase panel [6], more than 30%; on KinomeScan kinase panel [7], 17%; at KinomeScan kinase panel [8] it was more than 30%. The remaining binding at 10 µM at KinomeScan kinase panel [9] and on KinomeScan kinase panel [10] was more than 30% each time.

`CCN1CCN(Cc2ccc(NC(=O)c3ccc(C)c(/C=C/c4cnc5[nH]ccc5c4Cl)c3)cc2C(F)(F)F)CC1` [HG-6-63-01, (E)-3-(2-(4-chloro-1H-pyrrolo[2,3-b]pyridin-5-yl)vinyl)-N-(4-((4-ethylpiperazin-1-yl)methyl)-3-(trifluoromethyl)phenyl)-4-methylbenzamide]: the 50% inhibitory concentration (IC50) (as a rule, the concentration at which inhibition is half-maximal) at wt RET is 35.3 nM; in the assay on TT cells, 2.3 nM; in the assay with MZ-CRC-1 cells it was 1 nM. Also, in the assay on RAT1 cells, the “Growth inhibition IC50 dose: RAT1” value is “Not measurable”. The “effect … in parental RAT1 cells” value in assay [1] is “did not affect”. Moreover, the “effect … in Nthy-ori-3-1 cells” value in [2] is given as “did not exert any detectable effects”. Besides, on KinomeScan kinase panel [11], the “score (%)” value is recorded as “nb (Hits values higher than 30% were considered negative (no binding: nb))”.

`CCN1CCN(Cc2ccc(NC(=O)c3ccc(C)c(C#Cc4cccnc4)c3)cc2C(F)(F)F)CC1` [XMD15-44]: the IC50 at wt RET was 14.2 nM; in the assay on TT cells, 1.5 nM; with MZ-CRC-1 cells, 4.2 nM. The “Growth inhibition IC50 dose: RAT1” value with RAT1 cells is given as “Not measurable”. The “effect … in parental RAT1 cells” value in [1] is “did not affect”. The “effect … in Nthy-ori-3-1 cells” value in assay [2] is “did not exert any detectable effects”. Also, the remaining binding at 10 µM on KinomeScan kinase panel [3] is 48%; at KinomeScan kinase panel [4], more than 30%; at KinomeScan kinase panel [5], 93%; at KinomeScan kinase panel [6], 100%; on KinomeScan kinase panel [7], 1.2%; on KinomeScan kinase panel [8], more than 30%. Besides, the remaining binding at 10 µM on KinomeScan kinase panel [9] worked out at 89%; at KinomeScan kinase panel [10] it was 100%. The “score (%)” value at KinomeScan kinase panel [11] was “nb (Hits values higher than 30% were considered negative (no binding: nb))”.

These data come from paper PMC4457528, “Identification of Novel Small Molecule Inhibitors of Oncogenic RET Kinase” (PLoS ONE, 2015).
